Reference: patent US20250228785A1, “MICROCAPSULE, PREPARATION METHOD THEREFOR, AND USE THEREOF IN PREVENTING AND/OR TREATING DAMAGE TO SALIVARY GLANDS CAUSED BY RADIATION THERAPY” (CAPITAL MEDICAL UNIVERSITY, priority 2021, published 2025)
Marks after values point to notes of the source that are not given here.

How the values were obtained:
[1] = test system: human submandibular gland epithelial cell line (HSG); test: RTCA cell proliferation after single X-ray irradiation with drugs; assay type: cell-based; conditions: Table 5 and FIG. 7
Description: 2) The proliferation plate were taken out, and the medium was refreshed. […] The cells were subjected to single X-ray (RAD SOURCE 2000) irradiation at a dose of 1.22 gy/min and a total dose of 2 gy.
3) After irradiation, detection was continuously carried out.

[2] = Nitrate content in saliva of rats after radiotherapy; assay type: in vivo; conditions: SD rats, 4 and 8 weeks after radiotherapy
rat salivary gland = test: Salivary flow rate of rats before and after radiotherapy; conditions: SD rats
[3] = test system: human submandibular gland epithelial cell line (HSG); test: RTCA cell proliferation after addition of drugs (no irradiation); conditions: microcapsules 0.25 mM, nitrate 0.5 mM
[4] = Nitrate content in the blood of mice after single gastric gavage; assay type: in vivo; conditions: ICR mice, 2 mmol/kg sodium nitrate single gastric gavage
Method: A total of 40 ICR mice (male, 20±4 g) were randomly divided into 4 groups of 10 mice each. […] Blood was collected from vena caudalis at 0 h, and 2, 4, 6, 12, and 24 h after gastric gavage, respectively.

[5] = test system: submandibular gland acinar cells; test: Vacuole area in submandibular gland acinar cells (HE staining); assay type: in vivo; conditions: SD rats, high dose 40.5 mM, 8 weeks after radiotherapy
Description: At 8 weeks after radiotherapy, the micrographs (×40) of the HE stained submandibular gland tissues of the rats in each experimental group were shown in FIG. 9A on the right of the panel of FIG. 9. See FIG. 9B on the left of the panel of FIG. 9.

AQP5 = AQP5 expression level in submandibular gland acinar cells (immunofluorescence); assay type: in vivo; conditions: SD rats, 8 weeks after radiotherapy
Description: The immunofluorescence staining photographs (×20 under microscope) of the paraffin sections of the submandibular gland of the rats in each experimental group at 8 weeks after radiotherapy, and the quantitation results of the expression levels of AQP5 in the submandibular gland acinar cells in each group were shown in FIG. 10 and Table 8.

[6] = HE staining of sections of major organs (heart, liver, spleen, lung, kidney); conditions: SD rats
[7] = Serum biochemical detection at 8 weeks after radiotherapy; conditions: SD rats, 8 weeks after submandibular gland irradiation
[8] = high dose 40.5 mM in drinking water
[9] = low dose 20.25 mM in drinking water

With O=[N+]([O-])[O-].[Na+] [Sodium nitrate, sodium nitrate] as the compound, how does the “effect on proliferation of submandibular gland epithelial cells after single irradiation” value [1] read?
Its value is “promote the proliferation”.

And the “nitrate content in saliva, course after administration” value [2]?
Its value is “relatively stable”.

And the salivary flow rate (rat salivary gland; high dose 40.5 mM in drinking water, 1 W after radiotherapy)?
Its salivary flow rate is 0.48 ± 0.25 ml/20 min.

What about the salivary flow rate (rat salivary gland; high dose 40.5 mM in drinking water, 2 W after radiotherapy) of the same compound?
The salivary flow rate was 1.12 ± 0.20^a ml/20 min.

And the salivary flow rate (rat salivary gland; high dose 40.5 mM in drinking water, 4 W after radiotherapy)?
The salivary flow rate was 0.91 ± 0.17^a ml/20 min.

And the salivary flow rate (rat salivary gland; high dose 40.5 mM in drinking water, 6 W after radiotherapy)?
The salivary flow rate was 0.80 ± 0.09^a ml/20 min.

What about the salivary flow rate (rat salivary gland; high dose 40.5 mM in drinking water, 8 W after radiotherapy) of the same compound?
Its salivary flow rate is 0.81 ± 0.13 ml/20 min.

What about the salivary flow rate (rat salivary gland; high dose 40.5 mM in drinking water, first column 1 W (1 week before radiotherapy)) of the same compound?
Its salivary flow rate is 1.37 ± 0.24 ml/20 min.

What about the salivary flow rate (rat salivary gland; low dose 20.25 mM in drinking water, 1 W after radiotherapy) of the same compound?
Its salivary flow rate is 0.60 ± 0.25 ml/20 min.

And the salivary flow rate (rat salivary gland; low dose 20.25 mM in drinking water, 2 W after radiotherapy)?
Its salivary flow rate is 0.95 ± 0.01^a ml/20 min.

What about the salivary flow rate (rat salivary gland; low dose 20.25 mM in drinking water, 4 W after radiotherapy) of the same compound?
The salivary flow rate was 0.82 ± 0.21^a ml/20 min.

What about the salivary flow rate (rat salivary gland; low dose 20.25 mM in drinking water, 6 W after radiotherapy) of the same compound?
The salivary flow rate was 0.74 ± 0.12 ml/20 min.

What about the salivary flow rate (rat salivary gland; low dose 20.25 mM in drinking water, 8 W after radiotherapy) of the same compound?
The salivary flow rate was 0.76 ± 0.09 ml/20 min.

What about the salivary flow rate (rat salivary gland; low dose 20.25 mM in drinking water, first column 1 W (1 week before radiotherapy)) of the same compound?
The salivary flow rate was 1.34 ± 0.26 ml/20 min.

What about the “effect on proliferation of submandibular gland epithelial cells under normal conditions” value [3] of the same compound?
The value was “promote the proliferation”.

And the “Nitrate content in the blood” value ([4]; 0 h)?
Its value is 41.8 µmol/L.

And the “Nitrate content in the blood” value ([4]; 2 h)?
Its value is 1052.8 µmol/L.

What about the “Nitrate content in the blood” value ([4]; 4 h) of the same compound?
Its value is 572.4 µmol/L.

And the “Nitrate content in the blood” value ([4]; 6 h)?
The value was 297.4 µmol/L.

And the “Nitrate content in the blood” value ([4]; 12 h)?
Its value is 45.3 µmol/L.

And the “Nitrate content in the blood” value ([4]; 24 h)?
The value was 32.7 µmol/L.

What about the “vacuole area in submandibular gland acinar cells as compared with IR group” value [5] of the same compound?
Its value is “significantly decreased”.

And the “expression level of AQP5 versus IR group” value (AQP5; high dose 40.5 mM)?
Its value is “significantly different”.

What about the “expression level of AQP5 versus IR group” value (AQP5; low dose 20.25 mM) of the same compound?
The value was “significantly different”.

And the “effect on the organs in the body of the rats” value ([6]; continuous administration of 40.5 mM for 9 weeks)?
The value was “no significant effect”.

What about the “abnormality in the major organs, HE stained sections” value ([6]; high dose 40.5 mM, 8 weeks after radiotherapy, FIG. 12) of the same compound?
The value was “no abnormality”.

What about the ALP [7, 8] of the same compound?
The ALP was 112.00 ± 19.69 U/L.

What about the ALT [7, 8] of the same compound?
Its ALT is 49.20 ± 10.30 U/L.

And the AST [7, 8]?
Its AST is 116.20 ± 9.44 U/L.

And the Alb [7, 8]?
Its Alb is 8.66 ± 0.87 g/L.

What about the Ca [7, 8] of the same compound?
The Ca was 2.41 ± 0.14 mmol/L.

And the Cr [7, 8]?
The Cr was 46.7 ± 14.59 µmol/L.

What about the D-Bil [7, 8] of the same compound?
Its D-Bil is 1.8 ± 1.21 µmol/L.

And the GGT [7, 8]?
The GGT was 5.00 ± 0.71 U/L.

What about the Glb [7, 8] of the same compound?
The Glb was 45.42 ± 3.88 g/L.

And the HDL-C [7, 8]?
Its HDL-C is 2.09 ± 0.43 mmol/L.

What about the I-Bil [7, 8] of the same compound?
Its I-Bil is 1.73 ± 1.57 µmol/L.

And the K [7, 8]?
The K was 5.10 ± 0.45 mmol/L.

What about the LDH [7, 8] of the same compound?
Its LDH is 747.40 ± 165.67 U/L.

What about the LDL-C [7, 8] of the same compound?
The LDL-C was 0.24 ± 0.06 mmol/L.

What about the Na [7, 8] of the same compound?
Its Na is 141.66 ± 1.62 mmol/L.

And the P [7, 8]?
Its P is 2.77 ± 1.01 mmol/L.

And the T-Bil [7, 8]?
The T-Bil was 3.52 ± 2.00 µmol/L.

What about the TC [7, 8] of the same compound?
Its TC is 1.87 ± 0.38 mmol/L.

What about the TCO2 [7, 8] of the same compound?
Its TCO2 is 30.12 ± 3.07 mmol/L.

And the TG [7, 8]?
Its TG is 0.31 ± 0.38 mmol/L.

What about the TP [7, 8] of the same compound?
Its TP is 54.08 ± 4.11 g/L.

And the Urea [7, 8]?
The Urea was 5.78 ± 1.21 mmol/L.

And the ALP [7, 9]?
Its ALP is 95.00 ± 52.85 U/L.

What about the ALT [7, 9] of the same compound?
Its ALT is 46.60 ± 16.80 U/L.

What about the AST [7, 9] of the same compound?
The AST was 123.80 ± 38.49 U/L.

And the Alb [7, 9]?
Its Alb is 8.20 ± 1.32 g/L.

And the Ca [7, 9]?
Its Ca is 2.39 ± 0.09 mmol/L.

And the Cr [7, 9]?
The Cr was 47.82 ± 12.95 µmol/L.

What about the D-Bil [7, 9] of the same compound?
Its D-Bil is 1.43 ± 0.40 µmol/L.

What about the GGT [7, 9] of the same compound?
The GGT was 5.60 ± 0.89 U/L.

And the Glb [7, 9]?
The Glb was 44.68 ± 1.80 g/L.

What about the HDL-C [7, 9] of the same compound?
The HDL-C was 2.13 ± 0.71 mmol/L.

And the I-Bil [7, 9]?
The I-Bil was 1.43 ± 1.07 µmol/L.

And the K [7, 9]?
Its K is 5.31 ± 0.48 mmol/L.

And the LDH [7, 9]?
The LDH was 1212.44 ± 728.19 U/L.

What about the LDL-C [7, 9] of the same compound?
Its LDL-C is 0.27 ± 0.06 mmol/L.

And the Na [7, 9]?
The Na was 140.72 ± 1.47 mmol/L.

And the P [7, 9]?
Its P is 2.37 ± 0.22 mmol/L.

And the T-Bil [7, 9]?
The T-Bil was 2.52 ± 1.37 µmol/L.

What about the TC [7, 9] of the same compound?
Its TC is 2.05 ± 0.71 mmol/L.

And the TCO2 [7, 9]?
Its TCO2 is 30.26 ± 2.68 mmol/L.

What about the TG [7, 9] of the same compound?
The TG was 0.57 ± 0.42 mmol/L.

And the TP [7, 9]?
Its TP is 52.88 ± 2.40 g/L.

With O=C1O[C@H]([C@@H](O)CO)C(O)=C1O [Vc, vitamin C] as the compound, how does the “effect on proliferation of submandibular gland epithelial cells after single irradiation” value [1] read?
Its value is “promote the proliferation”.
